Measured values reported in patent publication US12433865B2, “Compositions comprising PGI2-receptor agonists and processes for the preparation thereof” (Arena Pharmaceuticals, Inc., priority 2018, dated 2025).

Experiment: Release (dissolution) profile of capsules, USP Apparatus 2 (paddle)
Assay type: physicochemical
Text: USP Apparatus 2 (Paddle Apparatus) is described, for example, in the United States Pharmacopeial Convention, Feb. 1, 2012, Chapter <711> (“Dissolution”), incorporated by reference herein in its entirety. See http://www.usp.org/sites/default/files/usp_pdf/EN/USPNF/revisions/m99470-gc_711.pdf. The assembly from Apparatus 1 is used, except that a paddle formed from a blade and a shaft is used as the stirring element. The shaft is positioned so that its axis is not more than 2 mm from the vertical axis of the vessel at any point and rotates smoothly without significant wobble that could affect the results. The vertical center line of the blade passes through the axis of the shaft so that the bottom of the blade is flush with the bottom of the shaft. A distance of 25±2 mm between the bottom of the blade and the inside bottom of the vessel is maintained during the test. The metallic or suitably inert, rigid blade and shaft comprise a single entity. A suitable two-part detachable design may be used provided the assembly remains firmly engaged during the test. The paddle blade and shaft may be coated with a suitable coating so as to make them inert. The dosage unit is allowed to sink to the bottom of the vessel before rotation of the blade is started. A small, loose piece of nonreactive material, such as not more than a few turns of wire helix, may be attached to dosage units that would otherwise float. Other validated sinker devices may be used.
Unless otherwise specified, the release profiles for capsules were measured using USP Apparatus 2 (paddle).
All release profiles disclosed in Tables 3c-3p were measured with USP Apparatus 2 (paddle) at 50 rpm in 500 mL of aqueous sodium phosphate at a concentration of 0.05 M (pH=6.8). The values in a given table relate to capsules obtained from the same batch. Values shown represent mean values over a number of dissolution tests (“n” in each table) in each case.

O=C(O)COC[C@H]1CC[C@H](COC(=O)N(c2ccccc2)c2ccc(Cl)cc2)CC1 [Compound 1, 2-(((1r,4r)-4-(((4-chlorophenyl)(phenyl)carbamoyloxy)methyl)cyclohexyl)methoxy)acetic acid]
mean value (n = 4) of % of Compound 1 released (Table 3p: size 4 capsule, 0.5 mg Compound 1, Poloxamer 188:food grade GMS 30:70, 735 min): 96.1% | mean value (n = 4) of % of Compound 1 released (Table 3q: size 4 capsule, 0.5 mg Compound 1, Poloxamer 188:food grade GMS 30:70, 30 min): 6.2% | mean value (n = 4) of % of Compound 1 released (Table 3q: size 4 capsule, 0.5 mg Compound 1, Poloxamer 188:food grade GMS 30:70, 60 min): 13.7% | mean value (n = 4) of % of Compound 1 released (Table 3q: size 4 capsule, 0.5 mg Compound 1, Poloxamer 188:food grade GMS 30:70, 120 min): 27.3% | mean value (n = 4) of % of Compound 1 released (Table 3q: size 4 capsule, 0.5 mg Compound 1, Poloxamer 188:food grade GMS 30:70, 180 min): 40.3% | mean value (n = 4) of % of Compound 1 released (Table 3q: size 4 capsule, 0.5 mg Compound 1, Poloxamer 188:food grade GMS 30:70, 240 min): 52.5% | mean value (n = 4) of % of Compound 1 released (Table 3q: size 4 capsule, 0.5 mg Compound 1, Poloxamer 188:food grade GMS 30:70, 360 min): 74.2% | mean value (n = 4) of % of Compound 1 released (Table 3q: size 4 capsule, 0.5 mg Compound 1, Poloxamer 188:food grade GMS 30:70, 480 min): 85.5% | mean value (n = 4) of % of Compound 1 released (Table 3q: size 4 capsule, 0.5 mg Compound 1, Poloxamer 188:food grade GMS 30:70, 600 min): 91.5% | mean value (n = 4) of % of Compound 1 released (Table 3q: size 4 capsule, 0.5 mg Compound 1, Poloxamer 188:food grade GMS 30:70, 720 min): 93.4% | mean value (n = 4) of % of Compound 1 released (Table 3q: size 4 capsule, 0.5 mg Compound 1, Poloxamer 188:food grade GMS 30:70, 735 min): 94.5% | mean value (n = 6) of % of Compound 1 released (Table 3r: size 4 capsule, 0.03 mg Compound 1, Poloxamer 188:food grade GMS 30:70, 60 min): 11% | mean value (n = 6) of % of Compound 1 released (Table 3r: size 4 capsule, 0.03 mg Compound 1, Poloxamer 188:food grade GMS 30:70, 120 min): 23% | mean value (n = 6) of % of Compound 1 released (Table 3r: size 4 capsule, 0.03 mg Compound 1, Poloxamer 188:food grade GMS 30:70, 180 min): 33% | mean value (n = 6) of % of Compound 1 released (Table 3r: size 4 capsule, 0.03 mg Compound 1, Poloxamer 188:food grade GMS 30:70, 240 min): 43% | mean value (n = 6) of % of Compound 1 released (Table 3r: size 4 capsule, 0.03 mg Compound 1, Poloxamer 188:food grade GMS 30:70, 360 min): 62% | mean value (n = 6) of % of Compound 1 released (Table 3r: size 4 capsule, 0.03 mg Compound 1, Poloxamer 188:food grade GMS 30:70, 480 min): 77% | mean value (n = 6) of % of Compound 1 released (Table 3r: size 4 capsule, 0.03 mg Compound 1, Poloxamer 188:food grade GMS 30:70, 600 min): 87% | mean value (n = 6) of % of Compound 1 released (Table 3r: size 4 capsule, 0.03 mg Compound 1, Poloxamer 188:food grade GMS 30:70, 720 min): 91% | mean value (n = 6) of % of Compound 1 released (Table 3r: size 4 capsule, 0.03 mg Compound 1, Poloxamer 188:food grade GMS 30:70, 840 min): 95% | mean value (n = 6) of % of Compound 1 released (Table 3s-1: Storage time = 0, size 4 capsule, 0.03 mg Compound 1, Poloxamer 188:food grade GMS 30:70, 60 min): 16.7% | mean value (n = 6) of % of Compound 1 released (Table 3s-1: Storage time = 0, size 4 capsule, 0.03 mg Compound 1, Poloxamer 188:food grade GMS 30:70, 120 min): 27.5% | mean value (n = 6) of % of Compound 1 released (Table 3s-1: Storage time = 0, size 4 capsule, 0.03 mg Compound 1, Poloxamer 188:food grade GMS 30:70, 180 min): 38.3% | mean value (n = 6) of % of Compound 1 released (Table 3s-1: Storage time = 0, size 4 capsule, 0.03 mg Compound 1, Poloxamer 188:food grade GMS 30:70, 240 min): 50.3% | mean value (n = 6) of % of Compound 1 released (Table 3s-1: Storage time = 0, size 4 capsule, 0.03 mg Compound 1, Poloxamer 188:food grade GMS 30:70, 360 min): 72.3% | mean value (n = 6) of % of Compound 1 released (Table 3s-1: Storage time = 0, size 4 capsule, 0.03 mg Compound 1, Poloxamer 188:food grade GMS 30:70, 480 min): 88.7% | mean value (n = 6) of % of Compound 1 released (Table 3s-1: Storage time = 0, size 4 capsule, 0.03 mg Compound 1, Poloxamer 188:food grade GMS 30:70, 600 min): 96.0% | mean value (n = 6) of % of Compound 1 released (Table 3s-2: Storage time = 2 weeks, size 4 capsule, 0.03 mg Compound 1, Poloxamer 188:food grade GMS 30:70, 60 min): 16.0% | mean value (n = 6) of % of Compound 1 released (Table 3s-2: Storage time = 2 weeks, size 4 capsule, 0.03 mg Compound 1, Poloxamer 188:food grade GMS 30:70, 120 min): 27.7% | mean value (n = 6) of % of Compound 1 released (Table 3s-2: Storage time = 2 weeks, size 4 capsule, 0.03 mg Compound 1, Poloxamer 188:food grade GMS 30:70, 180 min): 39.7% | mean value (n = 6) of % of Compound 1 released (Table 3s-2: Storage time = 2 weeks, size 4 capsule, 0.03 mg Compound 1, Poloxamer 188:food grade GMS 30:70, 240 min): 52.2% | mean value (n = 6) of % of Compound 1 released (Table 3s-2: Storage time = 2 weeks, size 4 capsule, 0.03 mg Compound 1, Poloxamer 188:food grade GMS 30:70, 360 min): 74.6% | mean value (n = 6) of % of Compound 1 released (Table 3s-2: Storage time = 2 weeks, size 4 capsule, 0.03 mg Compound 1, Poloxamer 188:food grade GMS 30:70, 480 min): 89.4% | mean value (n = 6) of % of Compound 1 released (Table 3s-2: Storage time = 2 weeks, size 4 capsule, 0.03 mg Compound 1, Poloxamer 188:food grade GMS 30:70, 600 min): 96.7% | mean value (n = 6) of % of Compound 1 released (Table 3h: size 4 capsule, 0.03 mg Compound 1, Poloxamer 188:food grade GMS 50:50, 60 min): 17.9% | mean value (n = 6) of % of Compound 1 released (Table 3h: size 4 capsule, 0.03 mg Compound 1, Poloxamer 188:food grade GMS 50:50, 120 min): 35.9% | mean value (n = 6) of % of Compound 1 released (Table 3h: size 4 capsule, 0.03 mg Compound 1, Poloxamer 188:food grade GMS 50:50, 180 min): 51.7% | mean value (n = 6) of % of Compound 1 released (Table 3h: size 4 capsule, 0.03 mg Compound 1, Poloxamer 188:food grade GMS 50:50, 240 min): 67.9% | mean value (n = 6) of % of Compound 1 released (Table 3h: size 4 capsule, 0.03 mg Compound 1, Poloxamer 188:food grade GMS 50:50, 300 min): 83.6% | mean value (n = 6) of % of Compound 1 released (Table 3h: size 4 capsule, 0.03 mg Compound 1, Poloxamer 188:food grade GMS 50:50, 360 min): 92.3% | mean value (n = 6) of % of Compound 1 released (Table 3h: size 4 capsule, 0.03 mg Compound 1, Poloxamer 188:food grade GMS 50:50, 480 min): 98.1% | mean value (n = 4) of % of Compound 1 released (Table 3d: size 4 capsule, 0.5 mg Compound 1, Poloxamer 188:food grade GMS 70:30, 30 min): 13.8% | mean value (n = 4) of % of Compound 1 released (Table 3d: size 4 capsule, 0.5 mg Compound 1, Poloxamer 188:food grade GMS 70:30, 60 min): 60.2% | mean value (n = 4) of % of Compound 1 released (Table 3d: size 4 capsule, 0.5 mg Compound 1, Poloxamer 188:food grade GMS 70:30, 120 min): 92.1% | release rate relative to immediate release composition (capsule, Gelucire 50/13:Kolliphor RH40 50:50 (FIG. 3)): substantially reduced | change of release rate after storage (capsule, Gelucire 50/13:Kolliphor RH40 75:25, storage at 40° C. and 75% RH over time (FIG. 4)): significantly increased | release rate, 90:10 ratio relative to 80:20 ratio (capsule, Gelucire 50/13:Kolliphor RH40 90:10 vs 80:20 (FIG. 3)): further reduced | effect of curing in stabilizing the release profile (research grade GMS (lower monoester content) instead of food grade GMS): not as effective
